Where a name gives a salt, the structure may show the parent alone.
How the values were obtained:
Type in all cases: cell-based
[1] = system: human hepatocellular carcinoma cell line SNU398; assay: Inhibition of cell proliferation (GI50), SNU398; settings: Homo sapiens; SNU 398 cells, 48 h, CellTiter-Glo
Procedure: (§1) Human breast cancer cell lines T-47D, human hepatocellular carcinoma cell line SNU398, human colon carcinoma cell line HCT116, human lung cancer cell line H1299, human leukemia cell line K562, human lymphoma cell line Raji, human B cell lymphoblastoid cell line Ramos, and human Burkitt's lymphoma cell line Namalwa were grown and harvested as in Example 100. An aliquot of […] of cells (4.4×10^4 cells/mL) was added to a well of a 96-well microtiter plate containing 5 μL of a 10% DMSO in RPMI-1640 media solution containing 10 nM to 100 μM of 3-(2-chlorophenyl)-6-(3,4-methylenedioxyphenyl)-7H-[1,2,4]triazolo[3,4-b][1,3,4]thiadiazine (1 nM to 10 μM final). An aliquot of 45 μL of cells was added to a well of a 96-well microtiter plate containing 5 μL of a 10% DMSO in RPMI-1640 media solution without compound as the control sample for maximal cell proliferation (LMax). The samples were mixed by agitation and then incubated at 37° C. for 48 h in a 5% CO2-95% humidity incubator. After incubation, the samples were removed from the incubator and 25 μL of CellTiter-Glo™ reagent (Promega) was added. The samples were mixed by agitation and incubated at room temperature for 10-15 min. Plates were then read using a luminescent plate reader (Model SPECTRAfluor Plus, Tecan) to give Ltest values.
(§2) The samples were mixed by agitation and then incubated at 37° C. for 0.5 h in a 5% CO2-95% humidity incubator. After incubation, the samples were removed from the incubator and 25 μL of CellTiter-Glo™ reagent (Promega) was added. The samples were mixed by agitation and incubated at […] 10-15 min at room temperature in a 5% CO2-95% humidity incubator. Fluorescence was read as above, (LStart) defining luminescence for initial cell number used as baseline in GI50 determinations.
(§3) Calculation: GI50 (dose for 50% inhibition of cell proliferation) is the concentration where [(Ltest−LStart)/(LMax−LStart)]=0.5.

[2] = system: human lymphoma cell line Raji; assay: Caspase cascade activation (EC50), Raji; settings: Homo sapiens, RAJI cells, read-out: caspase potency (EC50) RAJI
Outline: (§4)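 Cells at 0.65×10^6 cells/mL exposed to compound at 0.016 to 10 μM final (1% DMSO) for 48 h at 37° C, 5% CO2. Caspase activity then read with 14 μM Ac-DEVD-R110 fluorogenic substrate in lysolecithin/DTT/PIPES pH 7.2 buffer at ex 485/em 530 nm after 3 h at room temperature. EC50 fitted sigmoidally from net RFU ratio to control.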

[3] = system: human Burkitt's lymphoma cell line Namalwa; assay: Caspase cascade activation (EC50), Namalwa; settings: Homo sapiens, Burkitts lymphoma cell; Namalwa cells; caspase cascade activation; read-out: caspase potency (EC50) Namalwa
Outline: as §4

[4] = system: human colon carcinoma cell line HCT116; assay: Inhibition of cell proliferation (GI50), HCT116; settings: Homo sapiens; HCT 116 cells, 48 h, CellTiter-Glo
Outline: (§5)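 Cells at 4.4×10^4 cells/mL were exposed to test compound (1 nM to 10 μM final) in RPMI-1640 with DMSO for 48 h at 37 °C, 5% CO2. Viability was read by CellTiter-Glo luminescence. GI50 is where (Ltest−LStart)/(LMax−LStart)=0.5, with LStart a 0.5 h baseline and LMax untreated cells.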

[5] = system: human Burkitt's lymphoma cell line Namalwa; assay: Inhibition of cell proliferation (GI50), Namalwa; settings: Homo sapiens, Burkitts lymphoma cell; Namalwa cells, 48 h, CellTiter-Glo
Outline: as §5

[6] = system: human breast cancer cell line T-47D; assay: Inhibition of cell proliferation (GI50), T47D; settings: Homo sapiens; T47D cells, 48 h, CellTiter-Glo
Procedure: as §1, §2, §3

[7] = system: human B cell lymphoblastoid cell line Ramos; assay: Caspase cascade activation (EC50), Ramos; settings: Homo sapiens, RAMOS cells, read-out: caspase potency (EC50) RAMOS
Outline: as §4

[8] = system: human colon carcinoma cell line HCT116; assay: Caspase cascade activation (EC50), HCT116; settings: Homo sapiens, HCT-116; HCT116 cells; caspase cascade activation; read-out: caspase potency (EC50) HCT116
Outline: as §4

[9] = system: human breast cancer cell line T-47D; assay: Caspase cascade activation (EC50), T-47D; settings: Homo sapiens; T47D cells; caspase cascade activation; read-out: caspase potency (EC50) T47D
Outline: as §4

[10] = system: human hepatocellular carcinoma cell line SNU398; assay: Caspase cascade activation (EC50), SNU398; settings: Homo sapiens, SNU-398; SNU398 cells; caspase cascade activation; read-out: caspase potency (EC50) SNU398
Outline: as §4

[11] = system: human lymphoma cell line Raji; assay: Inhibition of cell proliferation (GI50), Raji; settings: Homo sapiens; Raji cells, 48 h, CellTiter-Glo
Outline: as §5

[12] = system: human B cell lymphoblastoid cell line Ramos; assay: Inhibition of cell proliferation (GI50), Ramos; settings: Homo sapiens; Ramos cells, 48 h, CellTiter-Glo
Outline: as §5

[13] = system: human leukemia cell line K562; assay: Inhibition of cell proliferation (GI50), K562; settings: Homo sapiens; K562 cells, 48 h, CellTiter-Glo
Outline: as §5

[14] = system: human lung cancer cell line H1299; assay: Inhibition of cell proliferation (GI50), H1299; settings: NCI-H1299, H1299 cells, 48 h, CellTiter-Glo
Procedure: as §1, §2, §3

[15] = system: human cancer cell line H1299; assay: Caspase cascade activation (EC50), H1299; settings: NCI-H1299, H1299 cells, read-out: caspase potency (EC50) H1299
Outline: as §4

Row | SMILES | GI50 [1] [nM] | EC50 [2] [nM] | EC50 [3] [nM] | GI50 [4] [nM] | GI50 [5] [nM] | GI50 [6] [nM] | EC50 [7] [nM] | EC50 [8] [nM] | EC50 [9] [nM] | EC50 [10] [nM] | GI50 [11] [nM] | GI50 [12] [nM] | GI50 [13] [nM] | GI50 [14] [nM] | EC50 [15] [nM]
1 | CCN(CC)c1ccc(C2=Nn3c(nnc3-c3cc(OC)c(OC)c(OC)c3)SC2)cc1 [Example 21, 6-(4-Diethylaminophenyl)-3-(3,4,5-trimethoxyphenyl)-7H-[1,2,4]triazolo[3,4-b][1,3,4]thiadiazine hydrochloride] | 20 | 434 | 280 | 680 | 176 | 185 | 272 |  |  |  |  |  |  |  | 
2 | c1cc2c(cc1C1=Nn3c(nnc3-c3n[nH]c4c3CCC4)SC1)OCO2 [Example W2] | 294 | 710 | 592 | 5900 | 2550 | 1500 | 523 | 599 | 431 | 506 | 3000 | 1290 | 1870 |  | 
3 | Clc1ccc(-c2nnc3n2N=C(c2ccc4c(c2)OCO4)CS3)cc1 [G, 3-(4-Chlorophenyl)-6-(3,4-methylenedioxyphenyl)-7H-[1,2,4]triazolo[3,4-b][1,3,4]thiadiazine] |  | 393 | 265 |  |  | 97 | 481 | 849 | 513 | 273 |  |  |  | 307 | 1420
4 | COc1ccc(C2=Nn3c(nnc3-c3ccccc3C)SC2)cc1OC [K, 3-(2-Methylphenyl)-6-(3,4-dimethoxyphenyl)-7H-[1,2,4]triazolo[3,4-b][1,3,4]thiadiazine] |  | 479 | 267 |  |  | 2620 | 272 | 578 | 5130 | 316 |  |  |  | 667 | 697
5 | COc1ccc(C2=Nn3c(nnc3-c3cc(OC)cc(OC)c3)SC2)cc1 [Example 20, 3-(3,5-Dimethoxyphenyl)-6-(4-methoxyphenyl)-7H-[1,2,4]triazolo[3,4-b][1,3,4]thiadiazine hydrobromide] | 11 | 95 | 55 | 99 | 13 | 373 | 36 |  |  |  |  |  |  |  | 
6 | COc1ccccc1-c1nnc2n1N=C(c1ccc3[nH]c(=O)oc3c1)CS2 [Example 47, 6-(2,3-Dihydro-2-oxobenzo[d]oxazol-6-yl)-3-(2-methoxyphenyl)-7H-[1,2,4]triazolo[3,4-b][1,3,4]thiadiazine] | 1220 |  | 4790 | 3000 | 1480 | 3020 |  | 5540 | 2330 | 2740 |  |  |  |  | 
7 | Cc1ccc(C2=Nn3c(nnc3-c3ccccc3C)SC2)cc1 [Example 70, 3-(2-Methylphenyl)-6-(4-methylphenyl)-7H-[1,2,4]triazolo[3,4-b][1,3,4]thiadiazine] | 144 |  | 157 | 1010 | 158 | 500 |  | 205 | 546 | 165 |  |  |  |  | 

The next compounds have a lower EC50 [3] than those just listed; values first:

Row | GI50 [1] [nM] | EC50 [2] [nM] | EC50 [3] [nM] | GI50 [4] [nM] | GI50 [5] [nM] | GI50 [6] [nM] | EC50 [7] [nM] | EC50 [8] [nM] | EC50 [9] [nM] | EC50 [10] [nM] | GI50 [11] [nM] | GI50 [12] [nM] | GI50 [13] [nM] | GI50 [14] [nM] | EC50 [15] [nM] | SMILES
8 | 150 | 57 | 31 | 15 | 66 | 17 | 30 | 60 | 146 | 25 | 27 | 16 | 43 |  |  | COc1ccccc1-c1nnc2n1N=C(c1ccc(C)cc1)CS2 [Example 8, 3-(2-Methoxyphenyl)-6-(4-methylphenyl)-7H-[1,2,4]triazolo[3,4-b][1,3,4]thiadiazine hydrochloride]
9 | 1 | 15 | 7 | 34 | 6 | 28 | 7 | 17 | 32 | 6 |  |  |  |  |  | COc1ccc(C2=Nn3c(nnc3-c3ccc(OC)cc3OC)SC2)cc1 [Example 18, 3-(2,4-Dimethoxyphenyl)-6-(4-methoxyphenyl)-7H-[1,2,4]triazolo[3,4-b][1,3,4]thiadiazine hydrochloride]
10 | 12 | 29 | 17 | 67 | 12 | 48 | 20 | 32 | 35 | 24 |  |  |  |  |  | CCOc1ccccc1-c1nnc2n1N=C(c1ccc(C)cc1)CS2 [Example 19, 3-(2-Ethoxyphenyl)-6-(4-methylphenyl)-7H-[1,2,4]triazolo[3,4-b][1,3,4]thiadiazine hydrobromide]
11 | 13 |  | 15 | 40 | 64 | 34 |  | 25 | 35 | 17 |  |  |  |  |  | COc1ccccc1-c1nnc2n1N=C(c1ccc3c(c1)OCCO3)CS2 [Example 43, 6-(2,3-Dihydrobenzo[b][1,4]dioxin-6-yl)-3-(2-methoxyphenyl)-7H-[1,2,4]triazolo[3,4-b][1,3,4]thiadiazine]
12 | 50 |  | 49 | 129 | 29 | 137 |  | 65 | 163 | 41 |  |  |  |  |  | COc1ccccc1-c1nnc2n1N=C(c1ccc(C)c(C)c1)CS2 [Example 40, 3-(2-Methoxyphenyl)-6-(3,4-dimethylphenyl)-7H-[1,2,4]triazolo[3,4-b][1,3,4]thiadiazine]
13 | 4 |  | 11 | 41 | 10 | 50 |  | 17 | 42 | 15 |  |  |  |  |  | COc1ccc(OC)c(-c2nnc3n2N=C(c2ccc(C)cc2)CS3)c1 [Example 69, 3-(2,5-Dimethoxyphenyl)-6-(4-methylphenyl)-7H-[1,2,4]triazolo[3,4-b][1,3,4]thiadiazine]
14 | 98 |  | 34 | 149 | 84 | 103 |  | 59 | 102 | 43 |  |  |  |  |  | COc1ccccc1-c1nnc2n1N=C(c1ccc(Cl)c(N)c1)CS2 [Example 59, 6-(3-Amino-4-chlorophenyl)-3-(2-methoxyphenyl)-7H-[1,2,4]triazolo[3,4-b][1,3,4]thiadiazine]

From patent US20080045514A1 (Cytovia, Inc., priority 2006, published 2008)
